Source: US20250213627A1, “RECOMBINANT MICROORGANISM-BASED METHODS AND COMPOSITIONS FOR TREATMENT OF DISEASE” (Baylor College of Medicine, priority 2021, published 2025)
“Also recorded” adds a separate entry of the source.

Legend:
[1] = Pharmacokinetics following oral or subcutaneous administration in healthy and CIA rats; settings: rat, in vivo
Protocol: Pharmacokinetics following oral or subcutaneous administration of LrS235. Pharmacokinetics following oral or subcutaneous administration of LrS235 are conducted to determine the efficacy of ShK-235 entry into the circulation after its delivery via LrS235, an oral capsule, or subcutaneous injection, and the duration for which the peptide can be detected in the blood after a single bolus or repeated administration to rats with the CIA model of RA. The circulating levels of ShK-235 are quantified with two complementary and well-established techniques, mass spectrometry and single-cell patch-clamp, as the inventors and others have done with ShK, ShK analogs, and other Kv1.3 channel modulators^6,16,37,47-49,65. Tandem liquid chromatography triple quadrupole mass spectrometry (LC-QQQ-MS) is commonly used to rapidly detect and quantify small molecules and peptides for pharmacokinetics. As a complement, single-cell patch-clamp allows for the detection and quantification of functional peptide. This quantitative method (FIG. 9) has a low pM detection limit for the functional peptide. This technique has been validated and used to detect ShK-235 in the circulation of rats administrated the peptide via a capsule or via LrS235 (FIG. 8). […]

[2] = tested on: human and rat TEM cells; settings: cited from earlier work
[3] = tested on: anti-ShK-235 IgG; test: Immunogenicity ELISA on sera of CIA rats; type: in vivo, rat; settings: sera at end of 21-day CIA trial
Protocol: (§1) To test if ShK-235 produced by LrS235 is immunogenic, the sera of rats were assessed at the end of the 21-day CIA trial shown in FIG. 8 for anti-ShK-235 IgG by ELISA assay. Plates coated with collagen II and HsTX1[R14A] were used as controls. HsTX1[R14A] is another peptide blocker of Kv1.3 with no sequence or structural homology to ShK-235.
Immunogenicity assays in rats with CIA. High-protein binding 96-well microplates (3855, ThermoFisher, MA, US) were coated overnight with 10 μg/ml of either porcine collagen II (20031, Chondrex, Woodinville, WI), ShK-235, or HsTX1[R14A], dissolved in PBS. Non-specific binding sites were blocked with PBS+5% skimmed milk and washed with PBS+0.05% Tween 20 before adding serum from the CIA rats, diluted in PBS. After washes, anti-rat IgG antibodies conjugated to horseradish peroxidase (1 μg/ml; Pierce catalog 31471, lot UA280036) were added to all the wells. One-step TMB-ELISA (34028, ThermoFisher, MA, US) was used to detect absorbance on a plate reader at 650 nm.

[4] = molecular target: Kv1.3 (Mus musculus, UniProt P16390); test: Block of Kv1.3 channel, reported potency; type: cell-based; settings: FIGS. 5A-5B; n=4 cells per concentration
Chain of Kv1.3 (P16390 whole entry): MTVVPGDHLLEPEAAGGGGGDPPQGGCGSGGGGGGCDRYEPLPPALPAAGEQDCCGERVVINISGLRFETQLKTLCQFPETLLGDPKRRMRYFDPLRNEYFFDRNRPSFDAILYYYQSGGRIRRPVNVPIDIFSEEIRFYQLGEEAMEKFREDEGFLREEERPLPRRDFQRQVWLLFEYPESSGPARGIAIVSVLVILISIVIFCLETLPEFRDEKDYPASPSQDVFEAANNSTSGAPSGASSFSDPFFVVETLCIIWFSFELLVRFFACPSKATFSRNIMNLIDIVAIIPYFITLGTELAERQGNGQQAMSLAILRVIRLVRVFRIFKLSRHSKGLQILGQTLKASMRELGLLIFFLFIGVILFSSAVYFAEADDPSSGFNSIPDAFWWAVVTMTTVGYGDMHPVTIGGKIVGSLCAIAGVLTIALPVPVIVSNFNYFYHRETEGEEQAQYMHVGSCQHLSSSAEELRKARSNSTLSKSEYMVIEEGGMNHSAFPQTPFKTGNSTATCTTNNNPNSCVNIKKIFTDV

[5] = tested on: ShK-235 neutralizing antibodies; test: Antibody neutralization assay with CIA rat serum; type: cell-based; settings: CIA rat serum samples
Protocol: as §1
Antibody neutralization assays. […] It was then added to the PBMCs loaded with CELLTRACE™ Violet (C34557, ThermoFisher, MA, US), and T cells proliferation was assessed as described above.

[6] = Thermal stability of peptide

## CC[C@H](C)[C@@H]1NC(=O)[C@H](CO)NC(=O)[C@H](Cc2c[nH]cn2)NC(=O)[C@H](CCCCN)NC(=O)[C@@H]2CSSC[C@@H]3NC(=O)[C@H]([C@@H](C)O)NC(=O)[C@H](CCCCN)NC(=O)[C@H](CCCNC(=N)N)NC(=O)[C@H](CSSC[C@H](NC(=O)[C@H](CCCNC(=N)N)NC(=O)[C@H](CO)NC(=O)[C@H](CCCCN)NC(=O)[C@@H]4CCCN4C(=O)[C@H]([C@@H](C)CC)NC(=O)[C@H]([C@@H](C)O)NC(=O)[C@H](CC(=O)O)NC(=O)[C@H]([C@@H](C)CC)NC(=O)[C@@H](NC(=O)[C@H](CO)NC(=O)[C@@H](N)CCCNC(=N)N)CSSC[C@@H](C(=O)N[C@@H](C)C(=O)O)NC(=O)[C@H]([C@@H](C)O)NC(=O)CNC3=O)C(=O)N[C@@H]([C@@H](C)O)C(=O)N[C@@H](C)C(=O)N[C@@H](Cc3ccccc3)C(=O)N[C@@H](CCCCN)C(=O)N2)NC(=O)[C@H](Cc2ccccc2)NC(=O)[C@H](CO)NC(=O)[C@H](CC(C)C)NC(=O)[C@H](CCCNC(=N)N)NC(=O)[C@H](Cc2ccc(O)cc2)NC(=O)[C@H](CCCCN)NC1=O [ShK-235]
[1]
  Detection of ShK-235 in the circulation: detected
[2]
  Effect on activation and function of human and rat naïve and TCM cells: little to no effect
  Inhibition of activation of human and rat TEM cells: preferentially inhibits
[3]
  Anti-ShK-235 IgG titers / immunogenicity: very low titers; also recorded: not immunogenic
[4]
  IC50: 0.062 nM
[5]
  Neutralization of ShK-235 by serum: no neutralization
[6]
  Temperature stability: up to 80 °C
